The subject of series [1] is HCV replicon RNA (GenBank Accession No. AJ242654). The series is described as follows: HCV Replicon Assay (replicon RNA reduction and/or Fluc reporter signal). It counts as cell-based, Hepatitis C virus. As to conditions: Hepatitis C virus, 72 h, replicon-containing cells cultured with test compound for up to 3 days. The method in brief: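 IC50 values mostly reflect the drop in replicon RNA, though Fluc reporter signal may also be used. Compound incubated with cells carrying the bicistronic replicon for as long as 3 days; interferon served as positive control.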

In turn, `CC(C)(C)NS(=O)(=O)c1ccc(-c2c(C(N)=O)c3cc(C4CC4)cnc3n2C2CCC2)nc1` [Cpd 376, 2-[5-(tert-butylsulfamoyl)pyridin-2-yl]-1-cyclobutyl-5-cyclopropyl-1H-pyrrolo[2,3-b]pyridine-3-carboxamide] returned a melting point of 245 to 252 °C. Also, in series [1], the IC50 was less than 500 nM.

Consider `CCc1cnc2c(c1)c(C(N)=O)c(-c1ccc(S(=O)(=O)N[C@@H](C)C(F)(F)F)cn1)n2C1CCC1` [Cpd 377, 1-cyclobutyl-5-ethyl-2-(5-{[(2S)-1,1,1-trifluoropropan-2-yl]sulfamoyl}pyridin-2-yl)-1H-pyrrolo[2,3-b]pyridine-3-carboxamide], for which the melting point lay within 236 to 240 °C. In series [1], this molecule came in with an IC50 of less than 500 nM.

Take `CCc1cnc2c(c1)c(C(N)=O)c(-c1ccc(S(=O)(=O)NC(C)(C)C(F)(F)F)cc1)n2C1CCC1` [Cpd 378, 1-cyclobutyl-5-ethyl-2-{4-[(1,1,1-trifluoro-2-methylpropan-2-yl)sulfamoyl]phenyl}-1H-pyrrolo[2,3-b]pyridine-3-carboxamide]: the melting point lay within 185 to 193 °C. This molecule also displayed an IC50 in series [1] of less than 500 nM.

`CCc1cnc2c(c1)c(C(N)=O)c(-c1ccc(S(=O)(=O)NC3(C(F)(F)F)CC3)cc1)n2C1CCC1` [Cpd 379, 1-cyclobutyl-5-ethyl-2-(4-{[1-(trifluoromethyl)cyclopropyl]sulfamoyl}phenyl)-1H-pyrrolo[2,3-b]pyridine-3-carboxamide] had a melting point of 173 to 179 °C. For the same molecule, the IC50 in series [1] is less than 500 nM.

Take `Cc1cnc2c(c1)c(C#N)c(-c1ccc(S(=O)(=O)N[C@@H](C)C(F)(F)F)cn1)n2-c1cccnn1` [Cpd 383, 6-[3-cyano-5-methyl-1-(pyridazin-3-yl)-1H-pyrrolo[2,3-b]pyridin-2-yl]-N-[(2S)-1,1,1-trifluoropropan-2-yl]pyridine-3-sulfonamide]: the melting point lay within 150 to 153 °C. Besides, the IC50 in series [1] was less than 500 nM.

Consider `Cc1cnc2c(c1)c(C#N)c(-c1ccc(S(=O)(=O)N[C@@H](C)C(F)(F)F)cn1)n2-c1cncnc1` [Cpd 384, 6-[3-cyano-5-methyl-1-(pyrimidin-5-yl)-1H-pyrrolo[2,3-b]pyridin-2-yl]-N-[(2S)-1,1,1-trifluoropropan-2-yl]pyridine-3-sulfonamide], for which the melting point was in the range of 231 to 233 °C. The molecule further came in with an IC50 in series [1] of less than 500 nM.

`CC(C)(C)S(=O)(=O)Nc1ccc(-c2c(C#N)c3cc(Cl)cnc3n2C2CCC2)cc1` [Cpd 385, N-[4-(5-chloro-3-cyano-1-cyclobutyl-1H-pyrrolo[2,3-b]pyridin-2-yl)phenyl]-2-methylpropane-2-sulfonamide]: the melting point was 240 to 241 °C. In series [1], this molecule had an IC50 of less than 500 nM.

In turn, `CSc1cnc2c(c1)c(C(N)=O)c(-c1ccc(NS(=O)(=O)C(C)(C)C)cc1)n2C1CCC1` [Cpd 387, 2-{4-[(tert-butylsulfonyl)amino]phenyl}-1-cyclobutyl-5-(methylsulfanyl)-1H-pyrrolo[2,3-b]pyridine-3-carboxamide] displayed a melting point of 240 to 241 °C. For the same molecule, the IC50 in series [1] was less than 500 nM.

`CC(C)(NS(=O)(=O)c1ccc(-c2c(C(N)=O)c3cccnc3n2C2CCC2)cc1)C(F)(F)F` [Cpd 388, 1-cyclobutyl-2-{4-[(1,1,1-trifluoro-2-methylpropan-2-yl)sulfamoyl]phenyl}-1H-pyrrolo[2,3-b]pyridine-3-carboxamide] registered a melting point of 240 to 242 °C. The IC50 in series [1] is 500 to 2000 nM.

Consider `CSc1cnc2c(c1)c(C(N)=O)c(-c1ccc(S(=O)(=O)NC(C)(C)C(F)(F)F)cc1)n2C1CCC1` [Cpd 391, 1-cyclobutyl-5-(methylsulfanyl)-2-{4-[(1,1,1-trifluoro-2-methylpropan-2-yl)sulfamoyl]phenyl}-1H-pyrrolo[2,3-b]pyridine-3-carboxamide], for which the melting point lay in the range of 204 to 205 °C. In addition, the IC50 in series [1] was less than 500 nM.

`CSc1cnc2c(c1)c(C(N)=O)c(-c1ccc(S(=O)(=O)NC(C)(C)C)cc1)n2C1CCC1` [Cpd 392, 2-[4-(tert-butylsulfamoyl)phenyl]-1-cyclobutyl-5-(methylsulfanyl)-1H-pyrrolo[2,3-b]pyridine-3-carboxamide] returned a melting point of 224 to 226 °C. The molecule also yielded an IC50 in series [1] of less than 500 nM.

In the case of `CC(C)(C)NS(=O)(=O)c1ccc(-c2c(C(N)=O)c3cc(Cl)cnc3n2C2CCC2)cc1` [Cpd 393, 2-[4-(tert-butylsulfamoyl)phenyl]-5-chloro-1-cyclobutyl-1H-pyrrolo[2,3-b]pyridine-3-carboxamide], the melting point was 269 to 270 °C. In addition, in series [1], the half-maximal inhibitory concentration (IC50) is less than 500 nM.

`CC(C)(NS(=O)(=O)c1ccc(-c2c(C#N)c3cc(C(F)(F)F)cnc3n2C2CCC2)nc1)C(F)(F)F` [Cpd 395, 6-[3-cyano-1-cyclobutyl-5-(trifluoromethyl)-1H-pyrrolo[2,3-b]pyridin-2-yl]-N-(1,1,1-trifluoro-2-methylpropan-2-yl)pyridine-3-sulfonamide] displayed a melting point of 174 to 176 °C. Besides, in series [1], the IC50 is less than 500 nM.

Take `N#Cc1c(-c2ccc(S(=O)(=O)NC3(C(F)(F)F)CC3)cn2)n(C2CCC2)c2ncc(C(F)(F)F)cc12` [Cpd 396, 6-[3-cyano-1-cyclobutyl-5-(trifluoromethyl)-1H-pyrrolo[2,3-b]pyridin-2-yl]-N-[1-(trifluoromethyl)cyclopropyl]pyridine-3-sulfonamide]: the melting point fell in the range of 156 to 158 °C. The molecule also showed an IC50 in series [1] of less than 500 nM.

`CC1(NS(=O)(=O)c2ccc(-c3c(C#N)c4cc(C(F)(F)F)cnc4n3C3CCC3)nc2)CC1` [Cpd 398, 6-[3-cyano-1-cyclobutyl-5-(trifluoromethyl)-1H-pyrrolo[2,3-b]pyridin-2-yl]-N-(1-methylcyclopropyl)pyridine-3-sulfonamide] registered a melting point of 172 to 175 °C. This molecule returned a half-inhibitory concentration (IC50) in series [1] of less than 500 nM.

Turning to `CC(C)(NS(=O)(=O)c1ccc(-c2c(C(N)=O)c3cc(C(F)(F)F)cnc3n2C2CCC2)nc1)C(F)(F)F` [Cpd 399, 1-cyclobutyl-5-(trifluoromethyl)-2-{5-[(1,1,1-trifluoro-2-methylpropan-2-yl)sulfamoyl]pyridin-2-yl}-1H-pyrrolo[2,3-b]pyridine-3-carboxamide], the melting point lay in the range of 217 to 219 °C. The same molecule showed a 50% inhibitory concentration (IC50) in series [1] of less than 500 nM.

Molecule `NC(=O)c1c(-c2ccc(S(=O)(=O)NC3(C(F)(F)F)CC3)cn2)n(C2CCC2)c2ncc(C(F)(F)F)cc12` [Cpd 400, 1-cyclobutyl-5-(trifluoromethyl)-2-(5-{[1-(trifluoromethyl)cyclopropyl]sulfamoyl}pyridin-2-yl)-1H-pyrrolo[2,3-b]pyridine-3-carboxamide] came in with a melting point of 230 to 235 °C. Moreover, the IC50 in series [1] was less than 500 nM.

In turn, `CC(C)(NS(=O)(=O)c1ccc(-c2c(C(N)=O)c3cc(C(F)(F)F)cnc3n2C2CCC2)cc1)C(F)(F)F` [Cpd 401, 1-cyclobutyl-5-(trifluoromethyl)-2-{4-[(1,1,1-trifluoro-2-methylpropan-2-yl)sulfamoyl]phenyl}-1H-pyrrolo[2,3-b]pyridine-3-carboxamide] had a melting point of 239 to 241 °C. The concentration for half-maximal inhibition (IC50) in series [1] was less than 500 nM.

Molecule `NC(=O)c1c(-c2ccc(S(=O)(=O)NC3(C(F)(F)F)CC3)cc2)n(C2CCC2)c2ncc(C(F)(F)F)cc12` [Cpd 402, 1-cyclobutyl-5-(trifluoromethyl)-2-(4-{[1-(trifluoromethyl)cyclopropyl]sulfamoyl}phenyl)-1H-pyrrolo[2,3-b]pyridine-3-carboxamide] yielded a melting point of 261 to 263 °C. The molecule further displayed an IC50 in series [1] of less than 500 nM.

With `CC(C)(C)NS(=O)(=O)c1ccc(-c2c(C(N)=O)c3cc(C(F)(F)F)cnc3n2C2CCC2)cc1` [Cpd 403, 2-[4-(tert-butylsulfamoyl)phenyl]-1-cyclobutyl-5-(trifluoromethyl)-1H-pyrrolo[2,3-b]pyridine-3-carboxamide], the melting point lay in the range of 255 to 257 °C. This molecule also displayed an IC50 in series [1] of less than 500 nM.

Regarding `CC(C)(C)S(=O)(=O)Nc1ccc(-c2c(C(N)=O)c3cc(C(F)(F)F)cnc3n2C2CCC2)cc1` [Cpd 404, 2-{4-[(tert-butylsulfonyl)amino]phenyl}-1-cyclobutyl-5-(trifluoromethyl)-1H-pyrrolo[2,3-b]pyridine-3-carboxamide], the melting point was 257 to 259 °C. In series [1], this molecule returned an IC50 of less than 500 nM.

`Cc1nc2c(cc1C(F)(F)F)c(C#N)c(-c1ccc(S(=O)(=O)N[C@@H](C)C(F)(F)F)cn1)n2C1CCC1` [Cpd 405, 6-[3-cyano-1-cyclobutyl-6-methyl-5-(trifluoromethyl)-1H-pyrrolo[2,3-b]pyridin-2-yl]-N-[(2S)-1,1,1-trifluoropropan-2-yl]pyridine-3-sulfonamide] yielded a melting point of 201 to 203 °C. This molecule gave an IC50 in series [1] of less than 500 nM.

`CC(C)(NS(=O)(=O)c1ccc(-c2c(C(N)=O)c3cc(C(F)(F)F)cnc3n2C2CCCC2)nc1)C(F)(F)F` [Cpd 406, 1-cyclopentyl-5-(trifluoromethyl)-2-{5-[(1,1,1-trifluoro-2-methylpropan-2-yl)sulfamoyl]pyridin-2-yl}-1H-pyrrolo[2,3-b]pyridine-3-carboxamide] registered a melting point of 244 to 246 °C. Also, in series [1], the IC50 was less than 500 nM.

For the molecule `NC(=O)c1c(-c2ccc(S(=O)(=O)NC3(C(F)(F)F)CC3)cn2)n(C2CCCC2)c2ncc(C(F)(F)F)cc12` [Cpd 407, 1-cyclopentyl-5-(trifluoromethyl)-2-(5-{[1-(trifluoromethyl)cyclopropyl]sulfamoyl}pyridin-2-yl)-1H-pyrrolo[2,3-b]pyridine-3-carboxamide], the melting point lay in the range of 262 to 264 °C. The molecule also came in with an IC50 in series [1] of less than 500 nM.

Turning to `NC(=O)c1c(-c2ccc(S(=O)(=O)NC3(C(F)(F)F)CC3)cc2)n(C2CCCC2)c2ncc(C(F)(F)F)cc12` [Cpd 408, 1-cyclopentyl-5-(trifluoromethyl)-2-(4-{[1-(trifluoromethyl)cyclopropyl]sulfamoyl}phenyl)-1H-pyrrolo[2,3-b]pyridine-3-carboxamide], the melting point was 277 to 279 °C. The molecule also yielded an IC50 in series [1] of less than 500 nM.

The values are drawn from patent US9593108B2, “Compounds and methods for antiviral treatment” (PTC Therapeutics, Inc., priority 2009, dated 2017).
